From US5077195A, “Polypeptides complementary to peptides or proteins having an amino acid sequence or nucleotide coding sequence at least partially known and methods of design therefor” (Board of Reagents, The University of Texas System, priority 1986, dated 1991) come the findings set out here.

For one test, the target named is T1, ACTH (1-24) (Homo sapiens, UniProt P01189).
T1 construct: 10 ug synthetic ACTH (1-24) in PBS-Tween buffer; purchased Organon (West Orange, N.J.); host or cells: chemical synthesis
The test is described as follows: ELISA binding of ACTH to HTCA-coated microtiter wells. The method, then: From 1 to 25 micrograms (ug) per well of HTCA or insulin in carbonate-bicarbonate coating buffer were added to 96 well round bottom microtiter plates and incubated at 4° C. for 8 hr. The plates were then washed with phosphate buffered saline (PBS)-Tween 20 (Sigma Chemical Co., St. Louis, Mo.) buffer.
To the insulin-coated wells and to some of the HTCA-coated wells was added 10 ug synthetic ACTH (1-24) in PBS-Tween buffer. Control wells (HTCA alone) contained only PBS-Tween. The plates were incubated at room temperature for 2 hr. and then washed three times with PBS-Tween buffer. Rabbit antisera directed against the amide of synthetic ACTH 1-13 (Accurate Biochemicals, Westbury N.Y.) was added to each well and the plates were incubated for 1 hr at room temperature. Following 3 washes with PBS-Tween buffer, alkaline phosphatase-conjugated goat anti-rabbit Ig G (Miles Laboratories, Elkharbt, Ind.) in PBS-Tween buffer (1:300 dilution) was added. After inculation at room temperature for 1 hr, the plates were washed three times with PBS-Tween buffer and each well was treated with 200 microliters (ul) of p-nitrophenyl phosphate (1 mg/ml in carbonate-bicarbonate buffer) for 11/2 hr. at room temperature. The enzymatic reaction was then stopped by the addition of 3N NaOH (50 ul) to each well and the optical absorbance of p-nitrophenol the alkaline phosphatase product, was measured at 405 nm. The ACTH bound to the coated microtiter wells was measured by this enzyme-linked immunoabsorbent assay (ELISA).
A microtiter plate was prepared and treated generally as described above but was coated with 3.7 nmol/well HTCA. To each coated well was added a solution of 3.7 nmol ACTH combined with the amounts of HTCA designated on the abscissa in FIG. 4.
On the technique in general: In an ELISA, binding on a coated surface is turned into a signal by an enzyme label.

Another test concerns the target T2, I^125 ACTH (1-39) (Homo sapiens, UniProt P01189).
T2 construct: I^125 ACTH (1-39) (New England Nuclear Boston, MA); purchased New England Nuclear (Boston, MA)
T2 sequence (P01189 138-176 limits assumed): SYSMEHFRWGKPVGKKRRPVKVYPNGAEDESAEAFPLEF
The test is described as follows: ^125 I-ACTH binding to peptide-coated microtiter wells. Particulars: for CPM Bound ^125 I-ATCH: Table 11; for CPM bound ^125 I-ACTH: Table 10. The method, then:
Utilizing techniques described in Example 1B, polyvinyl microtiter wells were coated with 3'-5' HTCA from a 1 mM solution thereof or with BSA.
The BSA and 3'-5' HTCA coated wells were washed and then treated with one of three solutions of I^125 ACTH (1-39) (New England Nuclear Boston, MA) having different concentrations. After a forty five minute incubation period the solution was removed and the microtiter wells extensively washed. The microtiter wells were separated and assayed for iodine^125content in a Beckman Gamma 5500 gamma counter. Bound ^125 I-ACTH was measured in duplicate at three concentrations in the absence and presence of excess unlabelled ACTH.
Utilizing the cRNA sequence and HTCA sequence shown in Table 8 of Example 1A, a series of peptides having a carboxy-terminal portion of the HTCA amino acid were synthesized. A pentamer (5-mer) contained the amino acid sequence: H2 N-Phe-His-Gly-Val-Arg-COOH. A decamer (10-mer) contained the amino acid sequence: H2 N-[…]COOH. A twenty membered peptide (20-mer) contained the amino acids sequence: H2 N-[…] Val-Arg-COOH. Each of thes peptides was used to coat microtiter wells and the coated wells tested for the ability to bind ^125 I-ACTH as described in Example 1C.
A 24-mer HTCA variant (R-HTCA) with reversed amino acid sequence directionality (amino-terminal and carboxy-terminal ends being reversed) was synthesized and had the following sequence: H2 N-[…] Arg-His-Leu-His-Val-Gly-COOH. The well-coating and ^125 I-ACTH binding procedures were performed as described in Example 1-C and the resultant data shown in Table 11.

The next test has as its target T3, ^125 I-ACTH (Homo sapiens, UniProt P01189).
T3 construct: ACTH plates+immunized rabbit immunoglobulin
T3 sequence (P01189 138-176 limits assumed): T2 sequence (P01189 138-176 limits assumed)
The test is described as follows: Solid-phase binding of ^125 I-ACTH to 5'-3' and 3'-5' complementary peptides. To be noted: wells coated 2 mg/ml. The method, then:
A solid-phase binding assay was used to determine the ability of both the 5'-to-3' and the 3'-to-5'-complementary-RNA-strand peptides (see Examples 1A and 1C) to bind ^125 I-ACTH. The peptides were diluted in phosphate-buffered saline (140 mM-NaCl/3 mM-KCl/0.1% NaN3 /20 mM-phosphate buffer, pH 7.4) to 2 mg/ml, and 0.2 ml/well was placed into poly(vinyl chloride) micro-titre plates (Becton and Dickinson, Oxnard, CA, U.S.A.). After 18 h at 4° C., unbound peptide was removed by washing three times with phosphate-buffered saline containing 0.1% bovine serum albumin (Sigma Chemical Co., St. Louis, MO, U.S.A.). ^125 I-ACTH was diluted to various concentrations with phosphate-buffered saline containing 0.1% bovine serum albumin and incubated in peptide-coated wells for 60 minutes at 4° C. […] After incubation, unbound radiolabel was washed out with phosphate-buffered saline containing 0.1% bovine serum albumin, and the radioactivity of individual wells was measured by gamma-radiation counting. The amount of specifically bound radioactivity was determined by blocking ^125 I-ACTH binding with unlabelled ACTH. Additional controls included coating wells with insulin or bovine serum albumin (2 mg/ml) before the addition of the ^125 I-ACTH.

Another test has as its target LHRH (Homo sapiens, UniProt P01148). Briefly: Reverse hemolytic plaque assay, LHRH-stimulated LH release from pituitary cells. Format: cell-based. The method, then:
A reverse hemolytic plaque assay (Smith, et al.), Method in Enzymology, 124, p.
Plaques were analyzed by determining plaque area with an image analysis (Bioquant or Image Technology Corp. Model 300) of 125×-500× microscopic enlargements.

The mark [1] stands for this setting: conc ^125 I-ATCH, + excess ACTH.

“And” between values parts separate entries of the source, which are not always exact repeats. Equal entries are not always repeated. Where no end group is shown, it is not given here.

Turning to GVHLHRAPLLAHRLAPAEVFHGVR [HTCA], on ACTH (1-24) (3.7 nmol/well HTCA coating, competition with soluble HTCA), the “ACTH-HTCA binding that was specific” value is “about 90%”. Moreover, at ACTH (1-24) (wells coated with 3.7 nmol/well HTCA, 3.7 nmol ACTH, read-out: Kd (Scatchard analysis) of ACTH-HTCA binding), the Kd worked out at 1.9 µM.

Consider RVGHFVEAPALRHALLPARHLHVG [R-HTCA], for which the “binding of ^125 I-ACTH to coated wells (in words)” value at I^125 ACTH (1-39) is on record as “significant affinity for ACTH”. Besides, the “CPM Bound ^125 I-ATCH” value at I^125 ACTH (1-39) (1:9 dil. ^125 I-ATCH) was 1,101 CPM and 1,161 CPM; on I^125 ACTH (1-39) (1:9 dil. ^125 I-ATCH, + Excess ACTH) it was 65 CPM and 69 CPM; at I^125 ACTH (1-39) (conc ^125 I-ATCH), 10,392 CPM and 10,709 CPM.

As for HRAPLLAHRLAPAEVFHGVR [20-mer], the “CPM bound ^125 I-ACTH” value at I^125 ACTH (1-39) (1:3 dilution ^125 I-ATCH) was 613 CPM and 625 CPM.

Consider “insulin: control coating protein [reference compound]”, for which the “binding of ACTH (1-24) to coated microtiter wells (in words)” value in the test with ACTH (1-24) (10 ug ACTH, ELISA) is “not by insulin coated microtiter wells”. The “binding on control plates relative to binding to complementary peptide plates” value in the test with ^125 I-ACTH was “less than 5%”.

Take APAEVFHGVR [10-mer]: the “CPM bound ^125 I-ACTH” value is 8,927 CPM and 9,072 CPM on I^125 ACTH (1-39) (conc ^125 I-ATCH); 345 CPM and 350 CPM on I^125 ACTH (1-39) (setting [1]).

`C[C@H](N)C(=O)NCC(=O)N[C@H]1CSSC[C@@H](C(=O)O)NC(=O)[C@H](CO)NC(=O)[C@H]([C@@H](C)O)NC(=O)[C@H](Cc2ccccc2)NC(=O)[C@H]([C@@H](C)O)NC(=O)[C@H](CCCCN)NC(=O)[C@H](Cc2c[nH]c3ccccc23)NC(=O)[C@H](Cc2ccccc2)NC(=O)[C@H](Cc2ccccc2)NC(=O)[C@H](CC(N)=O)NC(=O)[C@H](CCCCN)NC1=O` [Somatostatin, reference compound]: the “plaque area, percentage response to control assay” value (“plaque area, percentage response” for short) on LHRH (5 × 10^-10 M LHRH + Somatostatin 10^-4 M, Exp. 1 (Pre)) was determined as 103%.

“FHGVR [5-mer, H2 N-Phe-His-Gly-Val-Arg-COOH]”: the “CPM bound ^125 I-ACTH” value at I^125 ACTH (1-39) (1:3 dilution ^125 I-ATCH) is 3,514 CPM and 3,655 CPM; at I^125 ACTH (1-39) (1:3 dilution ^125 I-ATCH, + excess ACTH), 97 CPM and 95 CPM; on I^125 ACTH (1-39) (1:9 dilution ^125 I-ATCH), 995 CPM and 993 CPM; on I^125 ACTH (1-39) (setting [1]), 233 CPM and 245 CPM.

“SRAQSIGPVL [5CA-LHRH, LEU--VAL--PRO--GLY--ILE--SER--GLN--ALA--ARG--SER]”: the “plaque area, percentage response” value on LHRH (5CA-LHRH alone 10^-5 M, Exp. 3) worked out at 2.7%; on LHRH (5CA-LHRH alone 10^-6 M, Exp. 3) it was 0.5%; on LHRH (5CA-LHRH alone 10^-7 M, Exp. 3) it was 0.5%; at LHRH (5 × 10^-10 M LHRH + 10^-4 M, Exp. 1 (Pre)) it was 77%; on LHRH (LHRH + 10^-4 M, Exp. 2 (No)), 61%; at LHRH (LHRH + 10^-4 M, Exp. 4 (Pre)) it was 52%. Moreover, the “plaque area, percentage response” value on LHRH (LHRH + 10^-4 M, Exp. 5 (No)) stood at 52%; on LHRH (LHRH + 10^-5 M, Exp. 1 (Pre)), 82%; on LHRH (LHRH + 10^-5 M, Exp. 2 (No)) it was 52%; on LHRH (LHRH + 10^-5 M, Exp. 3 (Pre)) it was 68%; on LHRH (LHRH + 10^-5 M, Exp. 4 (Pre)), 63%; at LHRH (LHRH + 10^-5 M, Exp. 5 (No)), 70%. The “plaque area, percentage response” value on LHRH (LHRH + 10^-6 M, Exp. 1 (Pre)) was 110%; at LHRH (LHRH + 10^-6 M, Exp. 2 (No)) it was 74%; at LHRH (LHRH + 10^-6 M, Exp. 3 (Pre)) it was 98%; at LHRH (LHRH + 10^-6 M, Exp. 4 (Pre)) it was 81%; at LHRH (LHRH + 10^-6 M, Exp. 5 (No)), 81%; at LHRH (LHRH + 10^-7 M, Exp. 1 (Pre)), 101%. Besides, the “plaque area, percentage response” value on LHRH (LHRH + 10^-7 M, Exp. 2 (No)) was determined as 74%; on LHRH (LHRH + 10^-7 M, Exp. 3 (Pre)), 88%; on LHRH (LHRH + 10^-7 M, Exp. 4 (Pre)) it was 78%; at LHRH (LHRH + 10^-7 M, Exp. 5 (No)), 115%; on LHRH (LHRH + 10^-8 M, Exp. 1 (Pre)), 105%; at LHRH (LHRH + 10^-8 M, Exp. 2 (No)), 83%. For the same compound, the “plaque area, percentage response” value on LHRH (LHRH + 10^-8 M, Exp. 4 (Pre)) was 96%; at LHRH (LHRH + 10^-8 M, Exp. 5 (No)) it was 92%; on LHRH (LHRH + 10^-9 M, Exp. 1 (Pre)), 119%; on LHRH (LHRH + 10^-9 M, Exp. 2 (No)) it was 84%; on LHRH (LHRH + 10^-9 M, Exp. 4 (Pre)) it was 95%; at LHRH (LHRH + 10^-9 M, Exp. 5 (No)), 123%.

The Kd is the concentration at which binding is half-saturated.
